Laboratory results published in patent publication US10682323B2, “Therapeutic agent for glaucoma” (TOA EIYO LTD., priority 2016, dated 2020).
pEC50: −log10 of the molar value.

The compounds below were run against T1, human sGC (Homo sapiens, UniProt Q02153) (assay: Measurement of sGC activating effect in CHO-K1 cells stably expressing human sGC and mouse CNGA2). Conditions: CHO-K1 cells expressing human sGC and mouse CNGA2, Fura2 calcium readout, 10 μmol/L ODQ in assay buffer.
T1 construct: expressed in transfected cells; host or cells: CHO-K1 cells (Chinese hamster ovary), stably co-expressing mouse CNGA2 as the calcium read-out channel
T1 sequence (Q02153 1-619): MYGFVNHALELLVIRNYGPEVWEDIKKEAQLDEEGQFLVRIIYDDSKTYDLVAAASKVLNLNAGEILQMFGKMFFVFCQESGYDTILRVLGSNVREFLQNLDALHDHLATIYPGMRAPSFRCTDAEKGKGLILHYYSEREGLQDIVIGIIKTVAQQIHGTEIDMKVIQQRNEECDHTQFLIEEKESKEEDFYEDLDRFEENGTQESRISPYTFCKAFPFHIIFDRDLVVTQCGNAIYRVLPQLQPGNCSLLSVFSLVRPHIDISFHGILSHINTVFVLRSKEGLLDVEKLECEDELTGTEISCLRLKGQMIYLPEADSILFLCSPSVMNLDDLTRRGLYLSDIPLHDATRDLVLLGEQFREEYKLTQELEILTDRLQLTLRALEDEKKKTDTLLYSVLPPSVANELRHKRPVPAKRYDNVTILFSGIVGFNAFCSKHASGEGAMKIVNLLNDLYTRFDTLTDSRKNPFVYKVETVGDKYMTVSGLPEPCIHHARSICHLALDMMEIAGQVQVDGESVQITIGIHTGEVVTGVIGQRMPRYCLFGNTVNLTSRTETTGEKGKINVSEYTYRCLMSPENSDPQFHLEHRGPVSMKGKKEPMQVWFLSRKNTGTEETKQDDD
T1 sequence (Q02108 1-690 partner): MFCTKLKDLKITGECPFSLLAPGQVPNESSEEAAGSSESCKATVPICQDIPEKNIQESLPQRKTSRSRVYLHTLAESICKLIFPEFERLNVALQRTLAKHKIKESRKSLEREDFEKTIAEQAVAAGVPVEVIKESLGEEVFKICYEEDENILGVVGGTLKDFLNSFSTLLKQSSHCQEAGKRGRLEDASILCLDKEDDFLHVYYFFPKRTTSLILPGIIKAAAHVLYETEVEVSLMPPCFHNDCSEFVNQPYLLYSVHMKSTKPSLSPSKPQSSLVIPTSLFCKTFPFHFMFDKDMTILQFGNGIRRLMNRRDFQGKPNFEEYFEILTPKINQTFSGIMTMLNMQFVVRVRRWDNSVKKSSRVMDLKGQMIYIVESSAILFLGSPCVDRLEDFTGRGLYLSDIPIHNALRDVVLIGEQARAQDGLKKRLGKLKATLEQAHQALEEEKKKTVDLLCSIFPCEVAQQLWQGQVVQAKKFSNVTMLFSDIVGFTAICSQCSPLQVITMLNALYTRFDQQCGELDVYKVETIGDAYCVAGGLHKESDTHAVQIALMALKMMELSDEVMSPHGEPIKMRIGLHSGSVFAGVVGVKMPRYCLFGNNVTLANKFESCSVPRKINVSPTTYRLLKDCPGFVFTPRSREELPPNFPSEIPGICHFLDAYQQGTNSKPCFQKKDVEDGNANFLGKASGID
Assay type: cell-based
Description: Chinese Hamster ovary cells (CHO-K1 cells) modified for stably expressing human sGC α subunit and β subunit, and a mouse cyclic nucleotide gated channel (CNGA2) were used in the test.
The CHO-K1 cells stably expressing human sGC and mouse CNGA2 were cultured at 37° C. in a F-12 medium supplemented with 10% (v/v) fetal bovine serum (FBS), penicillin (100 U/mL), streptomycin (100 μg/mL), G418 (250 μg/mL), and Zeocin (250 μg/mL). The cells were suspended in a culture medium, seeded in a 96 well plate, and cultured at 37° C. for 24 hours. The cells were washed with an assay buffer 1 (140 mmol/L of sodium chloride, 5 mmol/L of potassium chloride, 0.5 mmol/L of magnesium chloride, 0.01 mmol/L of calcium chloride, 10 mmol/L of glucose, 0.4 mmol/L of magnesium sulfate, 10 mmol/L of 4-(2-hydroxyethyl)piperazine-1-yl ethanesulfonic acid, 125 μmol/L of sulfinpyrazone, pH 7.4), and then an indicator solution in which Fura2-AM as a fluorescent Ca2+ indicator is dissolved in assay buffer 1 at a concentration of 5 μmol/L was added thereto, and cultured at 37° C. for 60 minutes. The culture medium was removed, the cells were washed with assay buffer 1, the test compound solution was added thereto, and cultured at room temperature for 10 minutes. The plate was mounted on a fluorescence microplate reader (FlexStation II, available from Molecular Devices) with setting of excitation wavelengths of 340 and 380 nm and a detection wavelength of 510 nm, an intracellular calcium concentration was measured as a fluorescent intensity ratio obtained from each excitation wavelength.
In this test, the solution of the test compound was prepared by dissolving each test compound in DMSO at a concentration of 10 mmol/L, and then diluting the solution with assay buffer 2 (140 mmol/L of sodium chloride, 5 mmol/L of potassium chloride, 0.5 mmol/L of magnesium chloride, 1 mmol/L of calcium chloride, 10 mmol/L of glucose, 0.4 mmol/L of magnesium sulfate, 10 mmol/L of 4-(2-hydroxyethyl)piperazine-1-yl ethanesulfonic acid, 125 μmol/L of sulfinpyrazone, 100 μmol/L of isobutylmethylxanthine, 10 μmol/L of 1H-[1,2,4]-oxadiazole [4,3-a]quinoxaline-1-on (hereinafter, referred to as ODQ), pH 7.4), in order to adjust the concentration of 10 μmol/L for testing. As a control solution, a DMSO diluted solution was used, instead of the test compound solution.
The activity of the test compound was calculated as an increase rate (%) of the sGC activity in the test compound solution relative to the sGC activity in the control solution, by dividing a fluorescent intensity ratio in adding the test compound by a fluorescent intensity ratio of the control solution, and subtracting the sGC activity in the control solution (100%) therefrom. An EC50 value was calculated from the activity of the test compound at concentrations of 0.0001, 0.001, 0.003, 0.01, 0.03, 0.1, 1, and 10 μmol/L, using a 4 parameter losgistic model from Assay Explorer (available from Dssault Systèmes BIOVIA).

SMILES	pEC50
O=C(O)CCCCN(CCc1ccccc1OCc1ccc(CCc2ccccc2)cc1)Cc1ccc(C(=O)O)cc1 [Comparative Compound 1, reference compound]	8.05
CC(C)(C)c1cc(CO[C@@H](CN(CCCCC(=O)O)Cc2ccc(C(=O)O)cc2)c2ccccc2)cc(C(C)(C)C)c1 [Comparative Compound 4, reference compound]	9.34
O=C(O)CCCCN(Cc1ccc(C(=O)O)cc1)C[C@H](OCc1ccc(CCc2ccccc2)cc1)c1ccccc1 [Compound No. 14, (−)-4-([N-(4-carboxybutyl)-N-[(2R)-2-[4-(2-phenylethyl)benzyloxy]-2-phenylethyl]amino]methyl)benzoic acid]	8.24
O=C(O)CCCCN(CCc1ccccc1OCc1ccc(CCc2ccccc2)cc1)C1COc2cc(C(=O)O)ccc21 (stereo not shown) [Comparative Compound 2, reference compound]	7.71
O=C(O)CCCCN(CCc1ccccc1OCc1cccc2c1CCCC2)[C@H]1CCCc2cc(C(=O)O)ccc21 [Compound No. 8, (+)-(5S)-5-[N-(4-carboxybutyl)-N-[2-[2-(5,6,7,8-tetrahydronaphthalene-1-ylmethoxy)phenyl]ethyl]amino]-5,6,7,8-tetrahydronaphthalene-2-carboxylic acid]	8.18
N#Cc1cccc([C@H](CN(CCCCC(=O)O)Cc2ccc(C(=O)O)cc2)OCc2ccc(Oc3ccccc3)cc2)c1 [Comparative Compound 3, reference compound]	8.15
O=C(O)CCCCN(Cc1ccc(C(=O)O)cc1)C[C@H](OCc1ccc(CCc2ccc(Cl)cc2)cc1)c1ccccc1 [Compound No. 6, (−)-4-([N-(4-carboxybutyl)-N-[(2R)-2-[4-[2-(4-chlorophenyl)ethyl]benzyloxy]-2-phenylethyl]amino]methyl)benzoic acid]	8.50
